Values belong to the compound of their own block, whether it stands above or below them.
Tested on: K86415-001-R-J1-PDC complex spheroids, viability
Assay: Anticancer human tumor K86415-001-R-J1-PDC patient-derived lung adenocarcinoma cell line growth inhibition [RAS]
Conditions: for IC50: curve of first compound; for viability, T/C: stronger effect = lower value
How it was run: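 Agents were tested in combination matrices in half-log decrements from a top concentration at or near clinical Cmax (10 microM if undetermined). Targets were multi-cell spheroids of tumour lines plus HUVEC and MSC stromal cells.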

[1] = second compound 0.0316 µM, first compound 0.00316 µM
[2] = second compound 0.0316 µM, first compound 0.01 µM
[3] = second compound 0.0316 µM, first compound 0.0316 µM
[4] = second compound 0.0316 µM, first compound 0.1 µM
[5] = second compound 0.0316 µM, first compound 0.316 µM
[6] = second compound 0.0316 µM, first compound 1 µM
[7] = second compound 0.1 µM, first compound 0.00316 µM
[8] = second compound 0.1 µM, first compound 0.01 µM
[9] = second compound 0.1 µM, first compound 0.0316 µM
[10] = second compound 0.1 µM, first compound 0.1 µM
[11] = second compound 0.1 µM, first compound 0.316 µM
[12] = second compound 0.1 µM, first compound 1 µM
[13] = second compound 0.316 µM, first compound 0.00316 µM
[14] = second compound 0.316 µM, first compound 0.01 µM
[15] = second compound 0.316 µM, first compound 0.0316 µM
[16] = second compound 0.316 µM, first compound 0.1 µM
[17] = second compound 0.316 µM, first compound 0.316 µM
[18] = second compound 0.316 µM, first compound 1 µM
[19] = second compound 1 µM, first compound 0.00316 µM
[20] = second compound 1 µM, first compound 0.01 µM
[21] = second compound 1 µM, first compound 0.0316 µM
[22] = second compound 1 µM, first compound 0.1 µM
[23] = second compound 1 µM, first compound 0.316 µM
[24] = second compound 1 µM, first compound 1 µM
[25] = second compound 3.16 µM, first compound 0.00316 µM
[26] = second compound 3.16 µM, first compound 0.01 µM
[27] = second compound 3.16 µM, first compound 0.0316 µM
[28] = second compound 3.16 µM, first compound 0.1 µM
[29] = second compound 3.16 µM, first compound 0.316 µM
[30] = second compound 3.16 µM, first compound 1 µM
[31] = second compound 10 µM, first compound 0.00316 µM
[32] = second compound 10 µM, first compound 0.01 µM
[33] = second compound 10 µM, first compound 0.0316 µM
[34] = second compound 10 µM, first compound 0.1 µM
[35] = second compound 10 µM, first compound 0.316 µM
[36] = second compound 10 µM, first compound 1 µM
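Note: spheroids exposed to agents for seven days before readout.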

- IC50 (second compound 0.0316 µM): < 3.16 nM
- IC50 (second compound 0.1 µM): < 3.16 nM
- IC50 (second compound 0.316 µM): < 3.16 nM
- IC50 (second compound 1 µM): < 3.16 nM
- IC50 (second compound 3.16 µM): < 3.16 nM
- IC50 (second compound 10 µM): < 3.16 nM
Compound: C=CC(=O)N1CCN(c2nc(OCC3CCCN3C)nc3c(F)c(-c4nc(N)cc(C)c4C(F)(F)F)c(Cl)cc23)C(C)C1 (stereo not drawn) + C#Cc1c(F)ccc2cc(O)cc(-c3ncc4c(N5CC6CCC(C5)N6)nc(OCC56CCCN5CC(F)C6)nc4c3F)c12
- viability, T/C [1]: 18.2%
- viability, T/C [2]: 12.5%
- viability, T/C [3]: 11.4%
- viability, T/C [4]: 11.2%
- viability, T/C [5]: 8.99%
- viability, T/C [6]: 12%
- viability, T/C [7]: 19.5%
- viability, T/C [8]: 12.3%
- viability, T/C [9]: 11.3%
- viability, T/C [10]: 10.5%
- viability, T/C [11]: 7.88%
- viability, T/C [12]: 11%
- viability, T/C [13]: 19.9%
- viability, T/C [14]: 11.8%
- viability, T/C [15]: 8.76%
- viability, T/C [16]: 12.1%
- viability, T/C [17]: 9.15%
- viability, T/C [18]: 9.63%
- viability, T/C [19]: 18.6%
- viability, T/C [20]: 13.6%
- viability, T/C [21]: 13.2%
- viability, T/C [22]: 8.99%
- viability, T/C [23]: 10.1%
- viability, T/C [24]: 10.7%
- viability, T/C [25]: 19.5%
- viability, T/C [26]: 13.4%
- viability, T/C [27]: 9.24%
- viability, T/C [28]: 9.62%
- viability, T/C [29]: 9.96%
- viability, T/C [30]: 9.83%
- viability, T/C [31]: 11.9%
- viability, T/C [32]: 12.9%
- viability, T/C [33]: 10.9%
- viability, T/C [34]: 9.94%
- viability, T/C [35]: 10.1%
- viability, T/C [36]: 9.54%

- IC50 (second compound 0.0316 µM): < 31.6 nM
- IC50 (second compound 0.1 µM): < 31.6 nM
- IC50 (second compound 0.316 µM): < 31.6 nM
- IC50 (second compound 1 µM): < 31.6 nM
- IC50 (second compound 3.16 µM): < 31.6 nM
- IC50 (second compound 10 µM): < 31.6 nM
Compound: CC(=O)OC12COC1CC(O)C1(C)C(=O)C(O)C3=C(C)C(OC(=O)C(O)C(NC(=O)OC(C)(C)C)c4ccccc4)CC(O)(C(OC(=O)c4ccccc4)C21)C3(C)C (stereo not drawn) + C#Cc1c(F)ccc2cc(O)cc(-c3ncc4c(N5CC6CCC(C5)N6)nc(OCC56CCCN5CC(F)C6)nc4c3F)c12
- viability, T/C [3]: 29.3%
- viability, T/C [4]: 30.7%
- viability, T/C [5]: 32.6%
- viability, T/C [6]: 30.9%
- viability, T/C (second compound 0.0316 µM, first compound 3.16 µM): 37.5%
- viability, T/C (second compound 0.0316 µM, first compound 10 µM): 35.7%
- viability, T/C [9]: 30.8%
- viability, T/C [10]: 34.4%
- viability, T/C [11]: 28.6%
- viability, T/C [12]: 32%
- viability, T/C (second compound 0.1 µM, first compound 3.16 µM): 26.8%
- viability, T/C (second compound 0.1 µM, first compound 10 µM): 37%
- viability, T/C [15]: 32.2%
- viability, T/C [16]: 29.9%
- viability, T/C [17]: 27.4%
- viability, T/C [18]: 28.9%
- viability, T/C (second compound 0.316 µM, first compound 3.16 µM): 29.2%
- viability, T/C (second compound 0.316 µM, first compound 10 µM): 28.8%
- viability, T/C [21]: 34.2%
- viability, T/C [22]: 33.9%
- viability, T/C [23]: 28.7%
- viability, T/C [24]: 32.6%
- viability, T/C (second compound 1 µM, first compound 3.16 µM): 25.9%
- viability, T/C (second compound 1 µM, first compound 10 µM): 26.7%
- viability, T/C [27]: 23.9%
- viability, T/C [28]: 26.8%
- viability, T/C [29]: 27.1%
- viability, T/C [30]: 26.5%
- viability, T/C (second compound 3.16 µM, first compound 3.16 µM): 29.4%
- viability, T/C (second compound 3.16 µM, first compound 10 µM): 24.5%
- viability, T/C [33]: 20.1%
- viability, T/C [34]: 19.1%
- viability, T/C [35]: 19.5%
- viability, T/C [36]: 19.3%
- viability, T/C (second compound 10 µM, first compound 3.16 µM): 18.2%
- viability, T/C (second compound 10 µM, first compound 10 µM): 15.3%

- IC50 (second compound 0.0316 µM): 2.54 nM
- IC50 (second compound 0.1 µM): 2.62 nM
- IC50 (second compound 0.316 µM): 2.35 nM
- IC50 (second compound 1 µM): 1.79 nM
- IC50 (second compound 3.16 µM): < 0.949 nM
- IC50 (second compound 10 µM): < 0.949 nM
Compound: CCc1c2c(nc3ccc(O)cc13)-c1cc3c(c(=O)n1C2)COC(=O)[C@]3(O)CC + C#Cc1c(F)ccc2cc(O)cc(-c3ncc4c(N5CC6CCC(C5)N6)nc(OCC56CCCN5CC(F)C6)nc4c3F)c12
- viability, T/C (second compound 0.0316 µM, first compound 0.000949 µM): 93.6%
- viability, T/C (second compound 0.0316 µM, first compound 0.003 µM): 41.2%
- viability, T/C (second compound 0.0316 µM, first compound 0.00949 µM): 21.4%
- viability, T/C (second compound 0.0316 µM, first compound 0.03 µM): 17%
- viability, T/C (second compound 0.0316 µM, first compound 0.0949 µM): 10.5%
- viability, T/C (second compound 0.0316 µM, first compound 0.3 µM): 5.25%
- viability, T/C (second compound 0.1 µM, first compound 0.000949 µM): 85%
- viability, T/C (second compound 0.1 µM, first compound 0.003 µM): 44.7%
- viability, T/C (second compound 0.1 µM, first compound 0.00949 µM): 24.1%
- viability, T/C (second compound 0.1 µM, first compound 0.03 µM): 14%
- viability, T/C (second compound 0.1 µM, first compound 0.0949 µM): 9.47%
- viability, T/C (second compound 0.1 µM, first compound 0.3 µM): 5.05%
- viability, T/C (second compound 0.316 µM, first compound 0.000949 µM): 80.7%
- viability, T/C (second compound 0.316 µM, first compound 0.003 µM): 40.4%
- viability, T/C (second compound 0.316 µM, first compound 0.00949 µM): 23.9%
- viability, T/C (second compound 0.316 µM, first compound 0.03 µM): 15.6%
- viability, T/C (second compound 0.316 µM, first compound 0.0949 µM): 11.5%
- viability, T/C (second compound 0.316 µM, first compound 0.3 µM): 5.49%
- viability, T/C (second compound 1 µM, first compound 0.000949 µM): 69.1%
- viability, T/C (second compound 1 µM, first compound 0.003 µM): 34.6%
- viability, T/C (second compound 1 µM, first compound 0.00949 µM): 17.2%
- viability, T/C (second compound 1 µM, first compound 0.03 µM): 13.6%
- viability, T/C (second compound 1 µM, first compound 0.0949 µM): 10.5%
- viability, T/C (second compound 1 µM, first compound 0.3 µM): 6.31%
- viability, T/C (second compound 3.16 µM, first compound 0.000949 µM): 46%
- viability, T/C (second compound 3.16 µM, first compound 0.003 µM): 33.3%
- viability, T/C (second compound 3.16 µM, first compound 0.00949 µM): 22.5%
- viability, T/C (second compound 3.16 µM, first compound 0.03 µM): 15.5%
- viability, T/C (second compound 3.16 µM, first compound 0.0949 µM): 13.9%
- viability, T/C (second compound 3.16 µM, first compound 0.3 µM): 6.66%
- viability, T/C (second compound 10 µM, first compound 0.000949 µM): 17%
- viability, T/C (second compound 10 µM, first compound 0.003 µM): 12.8%
- viability, T/C (second compound 10 µM, first compound 0.00949 µM): 16.1%
- viability, T/C (second compound 10 µM, first compound 0.03 µM): 18.1%
- viability, T/C (second compound 10 µM, first compound 0.0949 µM): 14.2%
- viability, T/C (second compound 10 µM, first compound 0.3 µM): 6.63%

- IC50 (second compound 0.0316 µM): 83.3 nM
- IC50 (second compound 0.1 µM): 93 nM
- IC50 (second compound 0.316 µM): 70 nM
- IC50 (second compound 1 µM): 45.5 nM
- IC50 (second compound 3.16 µM): < 3.16 nM
- IC50 (second compound 10 µM): < 3.16 nM
Compound: Nc1ccn(C2OC(CO)C(O)C2(F)F)c(=O)n1 (stereo not drawn) + C#Cc1c(F)ccc2cc(O)cc(-c3ncc4c(N5CC6CCC(C5)N6)nc(OCC56CCCN5CC(F)C6)nc4c3F)c12
- viability, T/C [1]: 92.8%
- viability, T/C [2]: 95%
- viability, T/C [3]: 70%
- viability, T/C [4]: 48.2%
- viability, T/C [5]: 24.9%
- viability, T/C [6]: 21.6%
- viability, T/C [7]: 92.6%
- viability, T/C [8]: 96.6%
- viability, T/C [9]: 70.8%
- viability, T/C [10]: 50.7%
- viability, T/C [11]: 26.6%
- viability, T/C [12]: 19.6%
- viability, T/C [13]: 90%
- viability, T/C [14]: 83.3%
- viability, T/C [15]: 60.3%
- viability, T/C [16]: 48.1%
- viability, T/C [17]: 23.8%
- viability, T/C [18]: 19.5%
- viability, T/C [19]: 79.1%
- viability, T/C [20]: 69.5%
- viability, T/C [21]: 54%
- viability, T/C [22]: 40.9%
- viability, T/C [23]: 22.7%
- viability, T/C [24]: 15.7%
- viability, T/C [25]: 41.3%
- viability, T/C [26]: 35.4%
- viability, T/C [27]: 29.7%
- viability, T/C [28]: 28.9%
- viability, T/C [29]: 23.6%
- viability, T/C [30]: 21.2%
- viability, T/C [31]: 17.4%
- viability, T/C [32]: 17%
- viability, T/C [33]: 16.8%
- viability, T/C [34]: 13.6%
- viability, T/C [35]: 15.5%
- viability, T/C [36]: 14.5%
